Experimental data: US8143243B2, “Compounds for the treatment of hepatitis C” (Bristol-Myers Squibb Company, priority 2007, dated 2012)
Where two headings read alike, the source gives them in different places.

Legend:
HCV replicon cells = assay: HCV replicon FRET / luciferase assay; format: cell-based; conditions: Hepatitis C virus
Outline: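 Replicon cells (with or without Renilla luciferase reporter) incubated with titrated compounds at 37 °C; Alamar blue read for cytotoxicity first. NS3 protease activity read kinetically with 20 μM EDANS/DABCYL FRET peptide in lysis reagent plus 150 mM NaCl (ex 340/em 490), or by Dual-Glo luciferase. EC50 = 50% signal reduction after protease-inhibitor background subtraction.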

HCV NS5B = biological target: T1, HCV NS5B (Hepatitis C virus genotype 1b, UniProt Q9WMX2); assay: HCV NS5B RdRp enzyme assay (standard / modified); format: biochemical
T1 construct: The protein was expressed with an 18 amino acid C-terminal truncation to enhance the solubility; made in house; host or cells: E. coli BL21 (DE3)
Outline: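 NS5B genotype 1b, 18-aa C-terminal truncation, E. coli-expressed; polyA template with biotinylated oligo-dT12 primer, 3H-UTP 0.29 μM, 30° C, SPA read-out in 20 mM Hepes pH 7.5, 2% DMSO. Standard: 28 nM enzyme, 6 nM template, 180 nM primer, 60 min; modified: 14 nM enzyme, 0.2 nM template, 20 nM bead-precaptured primer, 4 h. IC50 from seven concentrations.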

[1] = HCV replicon cells, FRET or luciferase readout, read-out: EC50
[2] = HCV RdRp genotype 1b enzyme, read-out: IC50

T1 sequence (Q9WMX2 2420-2992): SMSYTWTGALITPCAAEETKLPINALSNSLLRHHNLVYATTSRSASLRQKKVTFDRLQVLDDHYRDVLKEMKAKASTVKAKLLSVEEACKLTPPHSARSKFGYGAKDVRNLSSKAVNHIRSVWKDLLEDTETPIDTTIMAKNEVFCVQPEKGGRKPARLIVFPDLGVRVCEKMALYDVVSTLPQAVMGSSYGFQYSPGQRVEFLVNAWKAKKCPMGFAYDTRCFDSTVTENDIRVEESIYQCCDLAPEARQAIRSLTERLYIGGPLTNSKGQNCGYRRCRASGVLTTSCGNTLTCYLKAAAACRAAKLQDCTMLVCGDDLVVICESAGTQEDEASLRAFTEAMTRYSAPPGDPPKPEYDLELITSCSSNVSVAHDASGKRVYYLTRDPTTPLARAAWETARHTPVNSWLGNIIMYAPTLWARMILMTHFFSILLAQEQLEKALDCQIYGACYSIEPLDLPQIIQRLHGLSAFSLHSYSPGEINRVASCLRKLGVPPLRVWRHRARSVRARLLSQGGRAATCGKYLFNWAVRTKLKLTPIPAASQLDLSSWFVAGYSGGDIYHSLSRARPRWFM

SMILES | EC50 (HCV replicon cells; [1]) [µM] | IC50 (HCV NS5B; [2]) [µM] | EC50 (HCV replicon cells) [µM] | IC50 (HCV NS5B) [µM]
COc1ccc2c(c1)C=C(c1c(C(=O)N3C[C@@H](C)O[C@@H](C)C3)cnn1C(C)(C)C)Cn1c-2c(C2CCCCC2)c2ccc(C(=O)NS(=O)(=O)C(C)C)cc21 | 0.001 to 0.5 | 0.001 to 0.5 |  | 
COc1ccc2c(c1)C=C(c1c(C(=O)N3CCCC3CN3CCCCC3)cnn1C)Cn1c-2c(C2CCCCC2)c2ccc(C(=O)NS(=O)(=O)N3CCOCC3)cc21 (centres unmarked) | 0.001 to 0.5 | 0.001 to 0.5 |  | 
COc1ccc2c(c1)C=C(c1c(C(=O)N3C4COCC3COC4)cnn1C)Cn1c-2c(C2CCCCC2)c2ccc(C(=O)NS(=O)(=O)C3CCC3)cc21 |  |  | 0.001 to 0.5 | 0.001 to 0.5
COc1ccc2c(c1)C=C(c1c(C(=O)N3C[C@@H](C)O[C@@H](C)C3)cnn1CC(F)(F)F)Cn1c-2c(C2CCCCC2)c2ccc(C(=O)NS(=O)(=O)C(C)C)cc21 | 0.001 to 0.5 | 0.001 to 0.5 |  | 
COc1ccc2c(c1)C=C(c1c(C(=O)N3CCOCC3)ccn1C(C)C)Cn1c-2c(C2CCCCC2)c2ccc(C(=O)NS(=O)(=O)C(C)C)cc21 | 0.001 to 0.5 | 0.001 to 0.5 |  | 
COc1ccc2c(c1)C=C(c1c(C(=O)N3C4CCCC3COC4)cnn1C)Cn1c-2c(C2CCCCC2)c2ccc(C(=O)NS(=O)(=O)C3CCCC3)cc21 |  |  | 0.001 to 0.5 | 0.001 to 0.5
COc1ccc2c(c1)C=C(c1c(C(=O)N3CCOCC3)cnn1C(C)C)Cn1c-2c(C2CCCCC2)c2ccc(C(=O)O)cc21 | 0.001 to 0.5 | 0.001 to 0.5 |  | 
COc1ccc2c(c1)C=C(c1c(C(=O)N3C4CCC3CN(C)C4)cnn1C)Cn1c-2c(C2CCCCC2)c2ccc(C(=O)O)cc21 |  |  | 0.001 to 0.5 | > 0.5
COc1ccc2c(c1)C=C(c1c(C(=O)N3C[C@@H](C)N(C)[C@@H](C)C3)c(C(F)(F)F)nn1C)Cn1c-2c(C2CCCCC2)c2ccc(C(=O)NS(=O)(=O)C(C)C)cc21 | 0.001 to 0.5 | 0.001 to 0.5 |  | 
COc1ccc2c(c1)C=C(c1c(C(=O)N3CCCC(N(C)C)C3)cnn1C)Cn1c-2c(C2CCCCC2)c2ccc(C(=O)NS(=O)(=O)C3CCC3)cc21 (centres unmarked) | 0.001 to 0.5 | 0.001 to 0.5 |  | 
COc1ccc2c(c1)C=C(c1c(C(=O)O)ccn1C(C)C)Cn1c-2c(C2CCCCC2)c2ccc(C(=O)NS(=O)(=O)C(C)C)cc21 | > 0.5 | 0.001 to 0.5 |  | 
COC[C@@H]1CN(C(=O)c2cnn(C)c2C2=Cc3cc(OC)ccc3-c3c(C4CCCCC4)c4ccc(C(=O)NS(=O)(=O)C(C)C)cc4n3C2)CCO1 | 0.001 to 0.5 | 0.001 to 0.5 |  | 
CCOC(=O)c1cnn(C)c1C1=Cc2cc(OC)ccc2-c2c(C3CCCCC3)c3ccc(C(=O)OC(C)(C)C)cc3n2C1 | 0.001 to 0.5 | > 0.04 |  | 
COc1ccc2c(c1)C=C(c1c(C(=O)N3CCN4CCCC4C3)cnn1C)Cn1c-2c(C2CCCCC2)c2ccc(C(=O)NS(=O)(=O)C(C)C)cc21 (centres unmarked) | 0.001 to 0.5 | 0.001 to 0.5 |  | 
COCCN(C(=O)c1cnn(C)c1C1=Cc2cc(OC)ccc2-c2c(C3CCCCC3)c3ccc(C(=O)NS(=O)(=O)C(C)C)cc3n2C1)C(C)C | 0.001 to 0.5 | 0.001 to 0.5 |  | 
COc1ccc2c(c1)C=C(c1ocnc1C(=O)N1CCOCC1)Cn1c-2c(C2CCCCC2)c2ccc(C(=O)NS(=O)(=O)C3CC3)cc21 | 0.001 to 0.5 | 0.001 to 0.5 |  | 
COCCN(C(=O)c1cnn(C)c1C1=Cc2cc(OC)ccc2-c2c(C3CCCCC3)c3ccc(C(=O)NS(=O)(=O)N4CCOCC4)cc3n2C1)C(C)C | 0.001 to 0.5 | 0.001 to 0.5 |  | 
CCCN1CCN(C(=O)c2ccn(C(C)C)c2C2=Cc3cc(OC)ccc3-c3c(C4CCCCC4)c4ccc(C(=O)NS(=O)(=O)C(C)C)cc4n3C2)CC1 | 0.001 to 0.5 | 0.001 to 0.5 |  | 
COc1ccc2c(c1)C=C(c1c(C(=O)N(CCN(C(C)C)C(C)C)C(C)C)cnn1C)Cn1c-2c(C2CCCCC2)c2ccc(C(=O)NS(=O)(=O)C(C)C)cc21 | 0.001 to 0.5 | 0.001 to 0.5 |  | 
COc1ccc2c(c1)C=C(c1c(C(=O)N3C[C@@H](C)O[C@@H](C)C3)c(C)nn1C)Cn1c-2c(C2CCCCC2)c2ccc(C(=O)NS(=O)(=O)C(C)C)cc21 | 0.001 to 0.5 | 0.001 to 0.5 |  | 
CCN1C[C@H]2C[C@@H]1CN2C(=O)c1cnn(C(C)C)c1C1=Cc2cc(OC)ccc2-c2c(C3CCCCC3)c3ccc(C(=O)NS(=O)(=O)CC(C)C)cc3n2C1 | 0.001 to 0.5 | 0.001 to 0.5 |  | 
CCn1ncc(C(=O)N2CCO[C@@H](COC)C2)c1C1=Cc2cc(OC)ccc2-c2c(C3CCCCC3)c3ccc(C(=O)NS(=O)(=O)C(C)C)cc3n2C1 | 0.001 to 0.5 | 0.001 to 0.5 |  | 
